In the supplement of paper PMC11208160:

Assay: recombinant UMI read abundance after kanamycin selection (control-corrected) (log10(CPM+1)); higher = more efficient recombination; extreme values may be limits of the assay; sequences stand for … in AGTGCAGAGAAAATCGGCCAGTTTTCTCTGCCTGCAGTCCGCATGCCGTGGGACCCCTTGGGTTCTAACCTGTTGCCTAGATTTATGCAGCGGACTGCCTTTCTCCCAAAGTGATAAACCGG…AGGTTGGTTTCACT; site = the 11-nt donor
Procedure: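 Pooled E. coli donor-specificity screen for the IS621 bridge recombinase. Each library member carries a reprogrammed 11-nt donor and a full-length LE bridge RNA expressed in cis from the natural promoter, with a paired donor-binding loop (8-nt LDG + 4-nt RDG) and a target-binding loop fixed to T5. It is co-electroporated with a T5 target plasmid; recombinase is induced with 0.07 mM IPTG and recombinants are selected on kanamycin. UMIs are counted as CPM, averaged over two biological replicates and corrected by the unselected control. Molecule = full bridge RNA written as DNA, built from the T5 scaffold: LDG = donor specificity nt 1-8, RDG = reverse complement of nt 8-11.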
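Further: IS621 bridge recombinase in Escherichia coli cells against a fixed T5 target plasmid.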

| Sequence | recombinant UMI read abundance (log10) |
| --- | --- |
| AAGCCTTCATGGACCGGTTTTCCCGGTAATCCGTATTTGGT (site AAGCCTTCTAC) | 0.585 |
| AAGCCTTCATGGACCGGTTTTCCCGGTAATCCGTATTTGGT (site CAGCCTTCTAC) | 0.357 |
| AAGCCTTCATGGACCGGTTTTCCCGGTAATCCGTATTTGGT (site GAGCCTTCTAC) | 0.134 |
| AAGCCTTCATGGACCGGTTTTCCCGGTAATCCGTATTTGGT (site TAGCCTTCTAC) | 0.12 |
| AAGCGTCCATGGACCGGTTTTCCCGGTAATCCGTATTTGCG (site AAGCGTCCTCG) | 1.06 |
| AAGCGTTCATGGACCGGTTTTCCCGGTAATCCGTATTTGTT (site AAGCGTTCTAA) | 1.52 |
| AAGCTCACATGGACCGGTTTTCCCGGTAATCCGTATTTGAT (site AAGCTCACTAT) | 1.97 |
| AAGCTCACATGGACCGGTTTTCCCGGTAATCCGTATTTGAT (site CAGCTCACTAT) | 1.5 |
| AAGCTCACATGGACCGGTTTTCCCGGTAATCCGTATTTGAT (site GAGCTCACTAT) | 0.291 |
| AAGCTCACATGGACCGGTTTTCCCGGTAATCCGTATTTGAT (site TAGCTCACTAT) | 1.55 |
| AAGGACCCATGGACCGGTTTTCCCGGTAATCCGTATTTGAA (site AAGGACCCTTT) | 1.1 |
| AAGGACGCATGGACCGGTTTTCCCGGTAATCCGTATTTGCC (site AAGGACGCTGG) | 2.85 |
| AAGGAGCCATGGACCGGTTTTCCCGGTAATCCGTATTTGGA (site AAGGAGCCTTC) | 0.02 |
| AAGGCGACATGGACCGGTTTTCCCGGTAATCCGTATTTGCT (site AAGGCGACTAG) | 2.18 |
| AAGGGACCATGGACCGGTTTTCCCGGTAATCCGTATTTGGT (site AAGGGACCTAC) | 0.00499 |
| AAGGGGCCATGGACCGGTTTTCCCGGTAATCCGTATTTGTG (site AAGGGGCCTCA) | 0.00547 |
| AAGGGTCCATGGACCGGTTTTCCCGGTAATCCGTATTTGAG (site AAGGGTCCTCT) | 0.405 |
| AAGGTGCCATGGACCGGTTTTCCCGGTAATCCGTATTTGAT (site AAGGTGCCTAT) | 0.438 |
| AAGTAAGCATGGACCGGTTTTCCCGGTAATCCGTATTTGGA (site AAGTAAGCTTC) | 1.78 |

| Sequence | recombinant UMI read abundance (log10) |
| --- | --- |
| AAGTATGCATGGACCGGTTTTCCCGGTAATCCGTATTTGGA (site AAATATGCTTC) | 0.814 |
| AAGTATGCATGGACCGGTTTTCCCGGTAATCCGTATTTGGA (site AACTATGCTTC) | 1.43 |
| AAGTATGCATGGACCGGTTTTCCCGGTAATCCGTATTTGGA (site AAGTATGCTTC) | 1.96 |
| AAGTATGCATGGACCGGTTTTCCCGGTAATCCGTATTTGGA (site AATTATGCTTC) | 1.04 |
| AAGTCAACATGGACCGGTTTTCCCGGTAATCCGTATTTGTG (site AAGTCAACTCA) | 0.011 |
| AAGTCCACATGGACCGGTTTTCCCGGTAATCCGTATTTGCC (site AAGTCCACTGG) | 1.61 |
| AAGTCCGCATGGACCGGTTTTCCCGGTAATCCGTATTTGAT (site AAGTCCGCTAT) | 1.53 |
| AAGTCGACATGGACCGGTTTTCCCGGTAATCCGTATTTGGG (site AAGTCGACTCC) | 0.0303 |
| AAGTCGACATGGACCGGTTTTCCCGGTAATCCGTATTTGGG (site CAGTCGACTCC) | 0.0471 |
| AAGTCGACATGGACCGGTTTTCCCGGTAATCCGTATTTGGG (site GAGTCGACTCC) | 0.0282 |
| AAGTCGACATGGACCGGTTTTCCCGGTAATCCGTATTTGGG (site TAGTCGACTCC) | 0.0179 |
| AAGTCTACATGGACCGGTTTTCCCGGTAATCCGTATTTGTA (site AAGTCTACTTA) | 0.646 |
| AAGTTCCCATGGACCGGTTTTCCCGGTAATCCGTATTTGTG (site AAGTTCCCTCA) | 0.111 |
| AAGTTCCCATGGACCGGTTTTCCCGGTAATCCGTATTTGTG (site ACGTTCCCTCA) | 0 |
| AAGTTCCCATGGACCGGTTTTCCCGGTAATCCGTATTTGTG (site AGGTTCCCTCA) | 0.0112 |
| AAGTTCCCATGGACCGGTTTTCCCGGTAATCCGTATTTGTG (site ATGTTCCCTCA) | 0.0155 |
| AAGTTCTCATGGACCGGTTTTCCCGGTAATCCGTATTTGCC (site AAGTTCTCTGG) | 2.31 |
| AAGTTGGCATGGACCGGTTTTCCCGGTAATCCGTATTTGCA (site AAGTTGGCTTG) | 2.05 |
| AAGTTTACATGGACCGGTTTTCCCGGTAATCCGTATTTGAC (site AAGTTTACTGT) | 1.97 |

| Sequence | recombinant UMI read abundance (log10) |
| --- | --- |
| AATAAGACATGGACCGGTTTTCCCGGTAATCCGTATTTGAA (site AATAAGACTTT) | 1.86 |
| AATAGAACATGGACCGGTTTTCCCGGTAATCCGTATTTGAG (site AATAGAACTCT) | 2 |
| AATAGAACATGGACCGGTTTTCCCGGTAATCCGTATTTGAG (site ACTAGAACTCT) | 1.6 |
| AATAGAACATGGACCGGTTTTCCCGGTAATCCGTATTTGAG (site AGTAGAACTCT) | 0.412 |
| AATAGAACATGGACCGGTTTTCCCGGTAATCCGTATTTGAG (site ATTAGAACTCT) | 0.329 |
| AATAGGACATGGACCGGTTTTCCCGGTAATCCGTATTTGCG (site AATAGGACTCG) | 1.97 |
| AATAGTGCATGGACCGGTTTTCCCGGTAATCCGTATTTGGT (site AATAGTGCTAC) | 1.23 |
| AATAGTGCATGGACCGGTTTTCCCGGTAATCCGTATTTGGT (site ACTAGTGCTAC) | 0.687 |
| AATAGTGCATGGACCGGTTTTCCCGGTAATCCGTATTTGGT (site AGTAGTGCTAC) | 0.602 |
| AATAGTGCATGGACCGGTTTTCCCGGTAATCCGTATTTGGT (site ATTAGTGCTAC) | 0.53 |
| AATATAACATGGACCGGTTTTCCCGGTAATCCGTATTTGCT (site AATATAACTAG) | 1.99 |
| AATATAACATGGACCGGTTTTCCCGGTAATCCGTATTTGCT (site AATCTAACTAG) | 0.615 |
| AATATAACATGGACCGGTTTTCCCGGTAATCCGTATTTGCT (site AATGTAACTAG) | 1.47 |
| AATATAACATGGACCGGTTTTCCCGGTAATCCGTATTTGCT (site AATTTAACTAG) | 0.0427 |
| AATCATGCATGGACCGGTTTTCCCGGTAATCCGTATTTGGA (site AATAATGCTTC) | 0.666 |
| AATCATGCATGGACCGGTTTTCCCGGTAATCCGTATTTGGA (site AATCATGCTTC) | 0.584 |
| AATCATGCATGGACCGGTTTTCCCGGTAATCCGTATTTGGA (site AATGATGCTTC) | 0.351 |
| AATCATGCATGGACCGGTTTTCCCGGTAATCCGTATTTGGA (site AATTATGCTTC) | 0.636 |
| AATCCATCATGGACCGGTTTTCCCGGTAATCCGTATTTGTA (site AATCCATCTTA) | 1.06 |
